# How the values were obtained:
# HCT-116 = assay: Antiproliferative activity against human HCT-116 cells assessed as reduction in cell viability incubated for 48 hrs by MTT assay; assay type: functional, cell-based; details: HCT-116, 48 h
# SW480 = assay: Antiproliferative activity against human SW480 cells assessed as reduction in cell viability incubated for 48 hrs by MTT assay; assay type: functional, cell-based; details: SW480, 48 h
Compound,IC50 (HCT-116) [µM],IC50 (SW480) [µM]
CCCCCC(CCO)n1cnc2c(NC)ncnc21 (racemic),> 50,> 50
C=C(CO)C(CCCCCC)n1cnc2c(Cl)ncnc21 (racemic),30.2,32
CCCCCCCC(CCO)n1cnc2c(OC)ncnc21 (racemic),15.3,23.9
CCCCCCCCC(CCO)n1cnc2c(N(C)C)ncnc21 (racemic),19.8,21.6
CCCCC(CCO)n1cnc2c(Cl)nc(F)nc21 (racemic),13.5,13.2
CCCCCCCC(CCO)n1cnc2c(N(C)C)ncnc21 (racemic),> 50,> 50
CCCCCC(CCO)n1c(Br)nc2c(Cl)ncnc21 (racemic),18.3,23.8
C=C(CO)C(CCCCCCCC)n1cnc2c(Cl)ncnc21 (racemic),19.4,16.2
CCCCCCCCCCCCC(CCO)n1cnc2c(Cl)ncnc21 (racemic),> 50,> 50
CCCCCCCC(CCO)n1cnc2c(N)ncnc21 (racemic),> 50,> 50
CCCCC(CCO)n1cnc2c(Cl)ncnc21 (racemic),> 50,> 50
CCCCCCCC(CCO)n1cnc2c(Cl)nc(Cl)nc21 (racemic),12.8,13.6
C=C(CO)C(c1ccccc1)n1cnc2c(Cl)ncnc21 (racemic),33.3,12.9
CCCCCCCCCCCC(CCO)n1cnc2c(N)nc(Cl)nc21 (racemic),19.9,17.8
CCC(CCO)n1cnc2c(Cl)nc(F)nc21 (racemic),18.9,19.8
CCCCCCCCCC(CCn1cc(-c2ccccc2)nn1)n1cnc2c(Cl)ncnc21 (racemic),13.5,9.92
CCCCCC(CCO)n1cnc2c(N(C)C)ncnc21 (racemic),> 50,> 50
OCCC(COCc1ccccc1)n1cnc2c(Cl)ncnc21 (racemic),> 50,> 50
CCCCCC(CCO)n1cnc2cncnc21 (racemic),> 50,> 50
CCCCCCCCCCCC(CCO)n1cnc2c(N)ncnc21 (racemic),13.3,11.6
CCCCCCCCCC(CCO)n1cnc2c(Cl)nc(F)nc21 (racemic),32,12.5
CCCCCCC(CCO)n1c(Br)nc2c(Cl)ncnc21 (racemic),16.1,14.1
CCCCCCCCCC(CCO)n1c(Br)nc2c(Cl)ncnc21 (racemic),26.9,25
CCCCCCC(CCO)n1cnc2c(OC)ncnc21 (racemic),> 50,> 50
OCCC(CO)n1cnc2c(Cl)ncnc21 (racemic),> 50,> 50
CCCCC(CCO)n1cnc2cncnc21 (racemic),> 50,> 50
C=C(CO)C(CCCCC)n1cnc2c(Cl)ncnc21 (racemic),> 50,> 50
CCCCCCC(CCO)n1cnc2cncnc21 (racemic),> 50,> 50

Compound,IC50 (HCT-116) [µM],IC50 (SW480) [µM]
CCCC(CCO)n1cnc2c(Cl)ncnc21 (racemic),> 50,> 50
CCCCC(CCO)n1cnc2c(OC)ncnc21 (racemic),> 50,> 50
OCCCn1cnc2c(Cl)nc(F)nc21,39.8,29.7
CCCCCCC(CCO)n1cnc2c(N(C)C)ncnc21 (racemic),> 50,> 50
CCCCCCC(CCO)n1cnc2c(NC)ncnc21 (racemic),> 50,> 50
CCCCCC(CCO)n1cnc2c(N)ncnc21 (racemic),> 50,> 50
CCCCCCCCCCCC(CCO)n1cnc2c(NC)ncnc21 (racemic),15.4,12.8
CCCCC(CCO)n1cnc2c(N)ncnc21 (racemic),> 50,> 50
CCCCCC(CCO)n1cnc2c(Cl)ncnc21 (racemic),> 50,> 50
CCCCCCCCC(CCO)n1cnc2c(Cl)nc(F)nc21 (racemic),24.2,15
CCCCCC(CCO)n1cnc2c(OC)ncnc21 (racemic),> 50,> 50
C=C(CO)C(CCCCCCCCC)n1cnc2c(Cl)ncnc21 (racemic),> 50,27.6
CCCC(CCO)n1cnc2c(Cl)nc(F)nc21 (racemic),16.5,17.2
CCCCCCCC(CCO)n1cnc2c(N)nc(Cl)nc21 (racemic),> 50,> 50
CCCCC(CCO)n1cnc2c(Cl)nc(Cl)nc21 (racemic),15.5,30.9
CCCCCCCC(CCO)n1c(Br)nc2c(Cl)ncnc21 (racemic),16.2,14.4
CCCCCCCCC(CCO)n1cnc2c(N)nc(Cl)nc21 (racemic),21,13.1
CC(CCO)n1cnc2c(Cl)nc(F)nc21 (racemic),19.8,16.8
CCCCCCCC(CCO)n1cnc2c(Cl)nc(F)nc21 (racemic),17.6,26.1
CCC(CCO)n1cnc2c(Cl)ncnc21 (racemic),> 50,> 50
CCCCCC(CCO)n1cnc2c(N)nc(Cl)nc21 (racemic),> 50,> 50
C=C(CO)C(CCCCCCC)n1cnc2c(Cl)ncnc21 (racemic),22.4,29.4
CCCCCCC(CCO)n1cnc2c(N)ncnc21 (racemic),> 50,> 50
CC(C)(C)[Si](C)(C)OCC(CCO)n1cnc2c(Cl)ncnc21 (racemic),> 50,31.7
CCCCCCCCC(CCO)n1c(Br)nc2c(Cl)ncnc21 (racemic),22.4,17.8
O=C(OCC(CCO)n1cnc2c(Cl)ncnc21)c1ccccc1 (racemic),> 50,> 50
CCCCCCCCCC(CCOCP(=O)(O)O)n1cnc2c(Cl)ncnc21 (racemic),> 50,> 50

# Now from value to molecule:
IC50 (HCT-116) [µM],IC50 (SW480) [µM],Compound
1.19,1.22,CCCCCCCCC[C@H](CCN=[N+]=[N-])n1cnc2c(Cl)ncnc21
12.8,24.6,CCCCCCCCC(CCO)n1cnc2c(OC)ncnc21 (racemic)
9.48,9.72,CCCCCCCCC[C@H](CCOS(C)(=O)=O)n1cnc2c(Cl)ncnc21
12.1,12.4,CCCCCCC(CCO)n1cnc2c(Cl)nc(Cl)nc21 (racemic)
4.93,3.16,CCCCCCCCCCC(CCO)n1cnc2c(Cl)ncnc21 (racemic)
8.23,9.7,CCCCCCCCCCCC(CCO)n1cnc2c(OC)ncnc21 (racemic)
3.4,2.33,CCCCCCCC[C@@H](CCO)n1cnc2c(Cl)ncnc21
5.49,3.32,CCCCCCCCCCC(CCO)n1cnc2c(N(C)C)ncnc21 (racemic)
7.78,8.02,CC(C)(C)[Si](C)(C)OCC(CCO)n1cnc2c(Cl)nc(F)nc21 (racemic)
9.11,4.79,CCCCCCCCCC(CCOCP(=O)(OCC)OCC)n1cnc2c(Cl)ncnc21 (racemic)
9.96,12.9,CCCCCCC(CCO)n1cnc2c(Cl)nc(F)nc21 (racemic)
5.24,7.17,OCCC(COCc1ccccc1)n1cnc2c(Cl)nc(F)nc21 (racemic)
1.12,0.32,CCCCCCCC[C@H](CCO)n1cnc2c(Cl)ncnc21
8.66,7.44,CCCCCC(CCO)n1cnc2c(Cl)nc(F)nc21 (racemic)
11.8,13.1,CCCCCCCCCCC(CCO)n1cnc2c(N)nc(Cl)nc21 (racemic)
8.13,8.57,CCCCCCCCC[C@H](CCn1cc(-c2ccccc2)nn1)n1cnc2c(Cl)ncnc21
5.17,7.24,O=C(OCC(CCO)n1cnc2c(Cl)nc(F)nc21)c1ccccc1 (racemic)
10.5,6.03,CCCCCCCCCC(CCO)n1cnc2c(N)ncnc21 (racemic)

IC50 (HCT-116) [µM],IC50 (SW480) [µM],Compound
10.2,7.18,CCCCCCCCCC(CCCl)n1cnc2c(Cl)ncnc21 (racemic)
3.73,3.77,CCCCCCCCC(CCO)n1cnc2c(NC)ncnc21 (racemic)
1.65,1.37,CCCCCCCCC(CCO)n1cnc2c(Cl)ncnc21 (racemic)
5.41,4.45,CCCCCCCCCC(CCO)n1cnc2c(NC)ncnc21 (racemic)
6.17,6.01,CCCCCC(CCO)n1cnc2c(Cl)nc(Cl)nc21 (racemic)
7.53,8.26,CCCCCCCCCCC(CCO)n1cnc2c(OC)ncnc21 (racemic)
2.53,3.25,CCCCCCCCCC(CCO)n1cnc2c(OC)ncnc21 (racemic)
0.45,1.63,CCCCCCCCC[C@H](CCO)n1cnc2c(Cl)ncnc21
7.59,5.29,CCCCCCCCCCCC(CCO)n1cnc2c(Cl)ncnc21 (racemic)
10.7,3.82,CCCCCCC[C@@H](CCO)n1cnc2c(Cl)ncnc21
1.05,3.62,CCCCCCCCC[C@@H](CCO)n1cnc2c(Cl)ncnc21
11.6,20.7,CCCCCCCCC(CCO)n1cnc2c(N)ncnc21 (racemic)
12.7,12,CCCCCCCCCCC(CCO)n1cnc2c(NC)ncnc21 (racemic)
1.04,1.2,CCCCCCCCCC(CCN=[N+]=[N-])n1cnc2c(Cl)ncnc21 (racemic)
4.16,3.63,CCCCCCCC(CCO)n1cnc2c(Cl)ncnc21 (racemic)
12.5,15.3,CCCCCCCC(CCO)n1cnc2c(NC)ncnc21 (racemic)
9.58,3.18,CCCCCCCCC[C@H](CCCl)n1cnc2c(Cl)ncnc21

# Source: ChEMBL document CHEMBL4811228, “Design, Synthesis, and Activity Evaluation of Novel Acyclic Nucleosides as Potential Anticancer Agents In Vitro and In Vivo” (J Med Chem, 2021)
